Article PMC4000412, “Novel LHRH-receptor-targeted cytolytic peptide, EP-100: first-in-human phase I study in patients with advanced LHRH-receptor-expressing solid tumors” (Cancer Chemotherapy and Pharmacology, 2014)
“Also recorded” adds a separate entry of the source. Peptide text beside a SMILES is read from it.

Assays:
[1] = Phase I dose-escalation safety: MTD, DLT, adverse events (NCI CTCAE 3.0); type: in vivo, human
Description: An open-label dose-escalation study was conducted at three centers after review and approval by each centers’ Institutional Review Board. Patients’ written informed consent was provided prior to study enrollment. The primary objectives of the study were to determine the maximum-tolerated dose (MTD) of EP-100 by intravenous (IV) infusion and to describe any dose limiting toxicities (DLT), which would inform the recommended phase 2 dose (RP2D) of EP-100 for future phase 2 protocols. Secondary objectives included: (a) to profile the PK and PD of EP-100, (b) to assess any drug immunogenicity by antidrug antibodies (ADA) which may react with endogenous LHRH, (c) to monitor biomarkers of pharmacologic activity of EP-100 and (d) to assess antitumor activity of EP-100 by radiographic assessments.
Cohorts of three patients were enrolled in a 3 + 3 dose-escalation design. […] A conservative first-in-human starting dose of 0.6 mg/m^2 was chosen, based on the repeat-dose toxicity studies in dogs (which appeared to be the most sensitive species). The initial dose schedule of one 30 min infusion weekly was predicted from animal PK profiles. Dosing frequency and infusion time were increased in subsequent cohorts by two protocol amendments. To increase the cumulative dose-exposure to EP-100, infusions were increased to twice weekly after conducting safety assessments in the first seven cohorts (n = 21 patients, at dose levels 0.6–7.8 mg/m^2). Twice weekly infusions effectively doubled the EP-100 delivered in all patients after cohort 7. The infusion time for the twice weekly doses also was increased from 30 to 60 min beginning with one patient in cohort 8 (dose level 11.7 mg/m^2), which decreased the intensity of infusion reactions (described below).
The absence of grade 2 drug-related toxicities in lower dose cohorts allowed 100 % dose acceleration. In the event of grade 2 or higher non-DLT in one or more patients, dose was escalated by 50 %. Dose escalation was limited to 50 % for any grade 1 or 2 drug-related dermatologic reactions unlikely to be allergic reaction or histamine-release syndromes and to 25 % for any grade 3 or 4 drug-related infusion reaction. With occurrence of the first DLT, the cohort was expanded to three additional patients. If one or more of the three additional patients at that dose level experienced DLT (total of two or more patients with DLT), MTD was reached. MTD was defined as the dose level below which two out of three to six patients experienced a DLT during the first cycle or during 1 complete cycle (28 days).
All adverse events (AE) were graded and reported according to National Cancer Institute Common Terminology Criteria for Adverse Events version 3.0 (NCI CTCAE 3.0). DLT were recorded during Cycle 1 if patients had any of the following: grade 4 neutropenia lasting 5 or more days, grade 3/4 neutropenia with fever and/or infection, grade 4 thrombocytopenia or grade 3 thrombocytopenia with bleeding, grade 3 or 4 allergic reaction, grade 3 or 4 drug-related non-hematologic toxicity (not including grade 3 nausea/vomiting or diarrhea with sub-optimal prophylactic and curative treatment) or a dose delay of more than 2 weeks due to treatment-related AE or laboratory abnormalities. Any grade 3 AE not judged to be clinically significant (e.g., alopecia or drug-related fever) were not considered DLT.

[2] = tested on: LHRH-receptor-positive human ovarian cancer cell line (OVCAR-3); parameters: method as in earlier work; conditions: mice implanted with OVCAR-3, three weekly doses; cited from earlier work
[3] = tested on: pituitary gonadotropes (LHRH receptors); experiment: Pharmacodynamics: serum FSH, LH and other pituitary hormones in patients; type: in vivo, human
Description: FSH and LH levels as well as testosterone in men and estradiol levels in women were obtained on Days 1, 8, 15 and 22 within 24 h prior to dosing. Testosterone and estradiol levels were measured on Day 1 only after Cycle 1 and at off study assessment. Blood was collected for circulating tumor cells (CTC) prior to dosing on Day 1 of the first cycle. Patients with positive CTC at baseline also had blood collected for CTC analysis prior to dosing on Day 1 of each subsequent cycle. Additional studies included plasma cortisol, adrenocorticotropin (ACTH), thyroxine (T4) and thyroid-stimulating hormone (TSH) and blood for tumor specific biomarker analysis (at investigator’s discretion), all obtained prior to Day 1 dosing with each cycle and at off study assessment. Samples for antidrug antibodies (ADA) were collected on Day 1 of Cycle 1 and then on Day 1 of every odd cycle.

[4] = selected toxicities, all cycles, N = 37

Compound: CC(C)C[C@H](NC(=O)CNC(=O)[C@H](Cc1ccc(O)cc1)NC(=O)[C@H](CO)NC(=O)[C@H](Cc1c[nH]c2ccccc12)NC(=O)[C@H](Cc1c[nH]cn1)NC(=O)[C@@H]1CCC(=O)N1)C(=O)N[C@@H](CCCNC(=N)N)C(=O)N1CCC[C@H]1C(=O)NCC(=O)N[C@@H](CCCCN)C(=O)N[C@@H](Cc1ccccc1)C(=O)N[C@@H](C)C(=O)N[C@@H](CCCCN)C(=O)N[C@@H](Cc1ccccc1)C(=O)N[C@@H](C)C(=O)N[C@@H](CCCCN)C(=O)N[C@@H](CCCCN)C(=O)N[C@@H](Cc1ccccc1)C(=O)N[C@@H](C)C(=O)N[C@@H](CCCCN)C(=O)N[C@@H](Cc1ccccc1)C(=O)N[C@@H](C)C(=O)N[C@@H](CCCCN)C(=O)N[C@@H](CCCCN)C(=O)N[C@@H](Cc1ccccc1)C(=O)N[C@@H](C)C(=O)N[C@@H](CCCCN)C(=O)O [EP-100] (HELM PEPTIDE1{[Glp].H.W.S.Y.G.L.R.P.G.K.F.A.K.F.A.K.K.F.A.K.F.A.K.K.F.A.K}$$$$V2.0; C-terminus assumed)
- IRDRs in the four lowest dose cohorts ([1]; 0.6–1.7 mg/m^2 at dose concentrations of 0.01–0.03 mg/mL): No IRDRs
- toxicities / AE of grade 3 or higher ([1]; all 37 patients, all dose levels): No toxicities ≥grade 3; also recorded: no grade 3 or 4 AE
- IRDRs (infusion-related dermatologic reactions) reported ([1]; all dose levels): 10 of 37
- SAE Disease progression, No. of patients (%) ([1]; dosing 1.35 mg/m^2 qw): 1 (2.7) No. of patients (%)
- SAE Disease progression, Outcome ([1]; dosing 1.35 mg/m^2 qw): Death
- SAE Disease progression, Relationship to EP-100 ([1]; dosing 1.35 mg/m^2 qw): Unrelated
- SAE Gastrointestinal hemorrhage, No. of patients (%) ([1]; dosing 1.35 mg/m^2 qw): 1 (2.7) No. of patients (%)
- SAE Gastrointestinal hemorrhage, Outcome ([1]; dosing 1.35 mg/m^2 qw): Resolved
- SAE Gastrointestinal hemorrhage, Relationship to EP-100 ([1]; dosing 1.35 mg/m^2 qw): Unlikely related
- SAE Peripheral edema, No. of patients (%) ([1]; dosing 1.35 mg/m^2 qw): 1 (2.7) No. of patients (%)
- SAE Peripheral edema, Outcome ([1]; dosing 1.35 mg/m^2 qw): Resolved with sequelae
- SAE Peripheral edema, Relationship to EP-100 ([1]; dosing 1.35 mg/m^2 qw): Unrelated
- SAE Pain, No. of patients (%) ([1]; dosing 1.7 mg/m^2 qw): 1 (2.7) No. of patients (%)
- SAE Pain, Outcome ([1]; dosing 1.7 mg/m^2 qw): Ongoing
- SAE Pain, Relationship to EP-100 ([1]; dosing 1.7 mg/m^2 qw): Unrelated
- SAE Chills, No. of patients (%) ([1]; dosing 11.7 mg/m^2 biw): 1 (2.7) No. of patients (%)
- SAE Chills, Outcome ([1]; dosing 11.7 mg/m^2 biw): Resolved
- SAE Chills, Relationship to EP-100 ([1]; dosing 11.7 mg/m^2 biw): Unrelated
- SAE Hydronephrosis, No. of patients (%) ([1]; dosing 11.7 mg/m^2 biw): 1 (2.7) No. of patients (%)
- SAE Hydronephrosis, Outcome ([1]; dosing 11.7 mg/m^2 biw): Resolved
- SAE Hydronephrosis, Relationship to EP-100 ([1]; dosing 11.7 mg/m^2 biw): Unrelated
- SAE Febrile neutropenia, No. of patients (%) ([1]; dosing 17.5 mg/m^2 biw): 1 (2.7) No. of patients (%)
- SAE Febrile neutropenia, Outcome ([1]; dosing 17.5 mg/m^2 biw): Resolved
- SAE Febrile neutropenia, Relationship to EP-100 ([1]; dosing 17.5 mg/m^2 biw): Unrelated
- SAE Ascites, No. of patients (%) ([1]; dosing 26 mg/m^2 biw): 1 (2.7) No. of patients (%)
- SAE Ascites, Outcome ([1]; dosing 26 mg/m^2 biw): Resolved with sequelae
- SAE Ascites, Relationship to EP-100 ([1]; dosing 26 mg/m^2 biw): Unlikely related
- SAE Fatigue, No. of patients (%) ([1]; dosing 26 mg/m^2 biw): 1 (2.7) No. of patients (%)
- SAE Fatigue, Outcome ([1]; dosing 26 mg/m^2 biw): Resolved
- SAE Fatigue, Relationship to EP-100 ([1]; dosing 26 mg/m^2 biw): Unrelated
- SAE Facial paresis, No. of patients (%) ([1]; dosing 40 mg/m^2 biw): 1 (2.7) No. of patients (%)
- SAE Facial paresis, Outcome ([1]; dosing 40 mg/m^2 biw): Ongoing
- SAE Facial paresis, Relationship to EP-100 ([1]; dosing 40 mg/m^2 biw): Unrelated
- SAE Gastrointestinal obstruction, No. of patients (%) ([1]; dosing 0.6, 0.9 mg/m^2 qw): 2 (5.4) No. of patients (%)
- SAE Gastrointestinal obstruction, Outcome ([1]; dosing 0.6, 0.9 mg/m^2 qw): Resolved with sequelae
- SAE Gastrointestinal obstruction, Relationship to EP-100 ([1]; dosing 0.6, 0.9 mg/m^2 qw): Unrelated
- SAE Pleural effusion, No. of patients (%) ([1]; dosing 11.7, 26 mg/m^2 biw): 2 (5.4) No. of patients (%)
- SAE Pleural effusion, Outcome ([1]; dosing 11.7, 26 mg/m^2 biw): Resolved
- SAE Pleural effusion, Relationship to EP-100 ([1]; dosing 11.7, 26 mg/m^2 biw): Unrelated
- maximum-tolerated dose (MTD) ([1]; highest dose evaluated 40 mg/m^2 twice weekly, IV infusion, 3 of 4 weeks per 28 day cycle): not reached
- onset of IRDRs after start of the drug infusion ([1]; in vivo): ≤ 15 min
- infusion site hypersensitivity, patients ([1]; n = 4 patients of 37): 10.8%
- pain, patients ([1]; one patient of 37): 2.7%
- AP (alkaline phosphatase), Grade 1/2 [1, 4]: 1 (2.7) No. of patients (%)
- AP (alkaline phosphatase), Grade 3/4 [1, 4]: 0 No. of patients (%)
- AST/ALT, Grade 1/2 [1, 4]: 1 (2.7) No. of patients (%)
- AST/ALT, Grade 3/4 [1, 4]: 0 No. of patients (%)
- Diarrhea, Grade 1/2 [1, 4]: 1 (2.7) No. of patients (%)
- Diarrhea, Grade 3/4 [1, 4]: 0 No. of patients (%)
- Fatigue, Grade 1/2 [1, 4]: 4 (10.8) No. of patients (%)
- Fatigue, Grade 3/4 [1, 4]: 0 No. of patients (%)
- Gastroesophageal reflux, Grade 1/2 [1, 4]: 1 (2.7) No. of patients (%)
- Gastroesophageal reflux, Grade 3/4 [1, 4]: 0 No. of patients (%)
- Hemoglobin, Grade 1/2 [1, 4]: 0 No. of patients (%)
- Hemoglobin, Grade 3/4 [1, 4]: 0 No. of patients (%)
- Infusion-related dermatologic reactions, Grade 1/2 [1, 4]: 10 (27) No. of patients (%)
- Infusion-related dermatologic reactions, Grade 3/4 [1, 4]: 0 No. of patients (%)
- Neutrophils, Grade 1/2 [1, 4]: 0 No. of patients (%)
- Neutrophils, Grade 3/4 [1, 4]: 0 No. of patients (%)
- Platelets, Grade 1/2 [1, 4]: 0 No. of patients (%)
- Platelets, Grade 3/4 [1, 4]: 0 No. of patients (%)
- Total bilirubin, Grade 1/2 [1, 4]: 0 No. of patients (%)
- Total bilirubin, Grade 3/4 [1, 4]: 0 No. of patients (%)
- Vomiting, Grade 1/2 [1, 4]: 1 (2.7) No. of patients (%)
- Vomiting, Grade 3/4 [1, 4]: 0 No. of patients (%)
- number of SAE recorded ([1]; treatment-emergent, 37 patients): Fourteen
- decreased appetite, patients ([1]; two patients of 37): 5.4%
- time to disappearance of all IRDR symptoms after cessation of the infusion ([1]; typically): ≤ 30 min
- in vivo activity [2]: decreased CA-125 levels and tumor regression
- reduction from baseline FSH ([3]; one breast cancer patient, dose level 7.8 mg/m^2, FSH 127–15 U/L): 88%
- LH reduction ([3]; one breast cancer patient, dose level 7.8 mg/m^2, LH 24–1 U/L): 96%
- effect on other pituitary hormones (ACTH and TSH) ([3]; patients): not affected
- FSH decrease ([3]; second breast cancer patient, 11.7 mg/m^2, FSH 21–4 U/L): 81%
- FSH decrease ([3]; third breast cancer patient, 26 mg/m^2, FSH 27–4 U/L): 85%
- LH decrease ([3]; third breast cancer patient, 26 mg/m^2, LH 27–1.3 U/L): 95%
- patients with sustained decreases in LH and FSH ([3]; three patients of 37, dose levels 11.7 and 26 mg/m^2, all breast cancer): 8%
